Laboratory results: the kinase profiling compilation of Christmann-Franck et al. (2016)
Each block holds one molecule with its values, some of them ahead of it.

Assays:
Assay in all cases: KINOMEscan competition binding
Details in all cases: compound 10.0 µM
CDK16 (human) = CDK16 (human) (UniProt Q00536)
TNIK (human) = TNIK (human) (UniProt Q9UKE5)
[1] = system: PIK3CA (human), P42336 [M1043I]
[2] = system: MET (human), P08581 [Y1235D]
CAMK2G (human) = CAMK2G (human) (UniProt Q13555)
SIK3 (human) = SIK3 (human) (UniProt Q9Y2K2)
MKNK1 (human) = MKNK1 (human) (UniProt Q9BUB5)
NUAK1 (human) = NUAK1 (human) (UniProt O60285)
STK33 (human) = STK33 (human) (UniProt Q9BYT3)
NTRK1 (human) = NTRK1 (human) (UniProt P04629)
PIK3CG (human) = PIK3CG (human) (UniProt P48736)
CDK19 (human) = CDK19 (human) (UniProt Q9BWU1)
STK38L (human) = STK38L (human) (UniProt Q9Y2H1)
ACVR1B (human) = ACVR1B (human) (UniProt P36896)
PAK7 (human) = PAK7 (human) (UniProt Q9P286)
DAPK1 (human) = DAPK1 (human) (UniProt P53355)
CDK8 (human) = CDK8 (human) (UniProt P49336)
AXL (human) = AXL (human) (UniProt P30530)
SGK110 (human) = SGK110 (human) (UniProt P0C264)
HIPK4 (human) = HIPK4 (human) (UniProt Q8NE63)
TSSK1B (human) = TSSK1B (human) (UniProt Q9BXA7)
AURKB (human) = AURKB (human) (UniProt Q96GD4)
CDK15 (human) = CDK15 (human) (UniProt Q96Q40)
CSF1R (human) = CSF1R (human) (UniProt P07333)
CSNK2A2 (human) = CSNK2A2 (human) (UniProt P19784)
TTK (human) = TTK (human) (UniProt P33981)
SRPK3 (human) = SRPK3 (human) (UniProt Q9UPE1)
IRAK1 (human) = IRAK1 (human) (UniProt P51617)
DCLK2 (human) = DCLK2 (human) (UniProt Q8N568)
PKMYT1 (human) = PKMYT1 (human) (UniProt Q99640)
[3] = target: JAK2 JH1 catalytic (human) (UniProt O60674)
DDR1 (human) = DDR1 (human) (UniProt Q08345)
HIPK2 (human) = HIPK2 (human) (UniProt Q9H2X6)
MAP3K10 (human) = MAP3K10 (human) (UniProt Q02779)
RPS6KA6 KD1 (human) = RPS6KA6 KD1 (human) (UniProt Q9UK32)
BMX (human) = BMX (human) (UniProt P51813)
RPS6KA5 KD2 (human) = RPS6KA5 KD2 (human) (UniProt O75582)
STK3 (human) = STK3 (human) (UniProt Q13188)
STK38 (human) = STK38 (human) (UniProt Q15208)
BMPR2 (human) = BMPR2 (human) (UniProt Q13873)
SYK (human) = SYK (human) (UniProt P43405)

Chain of CDK15 (human) (Q96Q40 whole entry, looked up): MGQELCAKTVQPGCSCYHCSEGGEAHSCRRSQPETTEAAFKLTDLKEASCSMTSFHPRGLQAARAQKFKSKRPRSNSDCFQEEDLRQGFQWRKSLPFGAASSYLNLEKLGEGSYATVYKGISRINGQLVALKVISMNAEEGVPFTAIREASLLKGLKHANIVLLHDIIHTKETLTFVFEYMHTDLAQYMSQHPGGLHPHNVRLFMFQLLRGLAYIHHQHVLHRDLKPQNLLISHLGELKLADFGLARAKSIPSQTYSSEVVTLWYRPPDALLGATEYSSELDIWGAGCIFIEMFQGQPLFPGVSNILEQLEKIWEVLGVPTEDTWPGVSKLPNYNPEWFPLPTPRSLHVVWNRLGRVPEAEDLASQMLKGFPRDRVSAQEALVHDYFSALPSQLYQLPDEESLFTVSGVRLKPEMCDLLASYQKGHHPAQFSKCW
Chain of SRPK3 (human) (Q9UPE1 whole entry, looked up): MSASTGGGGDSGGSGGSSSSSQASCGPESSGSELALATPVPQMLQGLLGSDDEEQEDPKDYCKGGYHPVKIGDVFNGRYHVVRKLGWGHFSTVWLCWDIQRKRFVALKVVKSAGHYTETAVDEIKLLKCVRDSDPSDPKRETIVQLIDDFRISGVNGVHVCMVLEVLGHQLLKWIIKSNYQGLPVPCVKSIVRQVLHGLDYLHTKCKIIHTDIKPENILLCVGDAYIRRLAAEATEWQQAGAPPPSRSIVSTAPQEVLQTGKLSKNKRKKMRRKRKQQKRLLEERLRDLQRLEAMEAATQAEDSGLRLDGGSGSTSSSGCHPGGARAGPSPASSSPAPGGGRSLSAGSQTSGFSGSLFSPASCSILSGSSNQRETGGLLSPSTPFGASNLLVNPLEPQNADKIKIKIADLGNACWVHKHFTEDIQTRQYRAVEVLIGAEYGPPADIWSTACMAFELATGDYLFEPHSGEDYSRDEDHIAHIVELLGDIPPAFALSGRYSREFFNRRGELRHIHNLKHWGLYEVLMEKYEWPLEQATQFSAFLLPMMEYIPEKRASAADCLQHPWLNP
Chain of MKNK1 (human) (Q9BUB5 whole entry, looked up): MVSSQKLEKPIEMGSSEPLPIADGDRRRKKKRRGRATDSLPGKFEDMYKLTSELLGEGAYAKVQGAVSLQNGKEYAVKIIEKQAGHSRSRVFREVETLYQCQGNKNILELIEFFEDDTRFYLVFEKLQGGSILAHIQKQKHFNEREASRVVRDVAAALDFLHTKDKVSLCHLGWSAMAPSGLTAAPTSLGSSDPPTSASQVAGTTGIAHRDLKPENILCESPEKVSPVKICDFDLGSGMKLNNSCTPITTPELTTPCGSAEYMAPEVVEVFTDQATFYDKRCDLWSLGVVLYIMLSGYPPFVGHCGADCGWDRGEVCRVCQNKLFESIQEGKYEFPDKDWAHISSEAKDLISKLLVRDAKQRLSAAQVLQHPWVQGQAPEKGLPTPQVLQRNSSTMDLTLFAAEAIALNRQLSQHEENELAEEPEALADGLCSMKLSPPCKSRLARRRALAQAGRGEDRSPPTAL
Chain of STK33 (human) (Q9BYT3 whole entry, looked up): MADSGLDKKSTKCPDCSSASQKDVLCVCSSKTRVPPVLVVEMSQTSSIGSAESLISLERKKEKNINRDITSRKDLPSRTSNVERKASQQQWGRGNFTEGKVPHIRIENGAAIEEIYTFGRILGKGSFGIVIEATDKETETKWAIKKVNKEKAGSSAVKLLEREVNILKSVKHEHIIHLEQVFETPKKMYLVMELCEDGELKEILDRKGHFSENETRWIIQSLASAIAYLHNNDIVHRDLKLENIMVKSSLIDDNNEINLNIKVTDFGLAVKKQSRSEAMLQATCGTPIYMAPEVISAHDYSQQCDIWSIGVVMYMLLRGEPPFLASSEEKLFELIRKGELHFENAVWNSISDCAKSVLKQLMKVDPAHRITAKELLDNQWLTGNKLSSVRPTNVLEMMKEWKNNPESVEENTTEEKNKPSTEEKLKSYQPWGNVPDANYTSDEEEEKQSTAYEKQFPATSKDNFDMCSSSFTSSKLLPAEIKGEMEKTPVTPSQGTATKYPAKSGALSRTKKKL
Chain of STK3 (human) (Q13188 whole entry, looked up): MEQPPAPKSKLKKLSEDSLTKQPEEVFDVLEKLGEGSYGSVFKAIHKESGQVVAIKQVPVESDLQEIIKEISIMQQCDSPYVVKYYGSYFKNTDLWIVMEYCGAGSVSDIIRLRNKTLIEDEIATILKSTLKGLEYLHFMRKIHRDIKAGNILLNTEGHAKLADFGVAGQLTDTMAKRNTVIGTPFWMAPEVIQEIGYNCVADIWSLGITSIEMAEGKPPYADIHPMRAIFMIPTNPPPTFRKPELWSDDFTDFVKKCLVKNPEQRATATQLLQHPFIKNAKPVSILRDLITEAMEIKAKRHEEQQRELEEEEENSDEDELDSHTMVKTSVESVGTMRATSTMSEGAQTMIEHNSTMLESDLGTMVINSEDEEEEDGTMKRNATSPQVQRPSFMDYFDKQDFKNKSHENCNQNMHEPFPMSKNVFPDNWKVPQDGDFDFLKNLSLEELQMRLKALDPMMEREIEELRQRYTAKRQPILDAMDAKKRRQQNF
Chain of JAK2 JH1 catalytic (human) (O60674 whole entry, looked up): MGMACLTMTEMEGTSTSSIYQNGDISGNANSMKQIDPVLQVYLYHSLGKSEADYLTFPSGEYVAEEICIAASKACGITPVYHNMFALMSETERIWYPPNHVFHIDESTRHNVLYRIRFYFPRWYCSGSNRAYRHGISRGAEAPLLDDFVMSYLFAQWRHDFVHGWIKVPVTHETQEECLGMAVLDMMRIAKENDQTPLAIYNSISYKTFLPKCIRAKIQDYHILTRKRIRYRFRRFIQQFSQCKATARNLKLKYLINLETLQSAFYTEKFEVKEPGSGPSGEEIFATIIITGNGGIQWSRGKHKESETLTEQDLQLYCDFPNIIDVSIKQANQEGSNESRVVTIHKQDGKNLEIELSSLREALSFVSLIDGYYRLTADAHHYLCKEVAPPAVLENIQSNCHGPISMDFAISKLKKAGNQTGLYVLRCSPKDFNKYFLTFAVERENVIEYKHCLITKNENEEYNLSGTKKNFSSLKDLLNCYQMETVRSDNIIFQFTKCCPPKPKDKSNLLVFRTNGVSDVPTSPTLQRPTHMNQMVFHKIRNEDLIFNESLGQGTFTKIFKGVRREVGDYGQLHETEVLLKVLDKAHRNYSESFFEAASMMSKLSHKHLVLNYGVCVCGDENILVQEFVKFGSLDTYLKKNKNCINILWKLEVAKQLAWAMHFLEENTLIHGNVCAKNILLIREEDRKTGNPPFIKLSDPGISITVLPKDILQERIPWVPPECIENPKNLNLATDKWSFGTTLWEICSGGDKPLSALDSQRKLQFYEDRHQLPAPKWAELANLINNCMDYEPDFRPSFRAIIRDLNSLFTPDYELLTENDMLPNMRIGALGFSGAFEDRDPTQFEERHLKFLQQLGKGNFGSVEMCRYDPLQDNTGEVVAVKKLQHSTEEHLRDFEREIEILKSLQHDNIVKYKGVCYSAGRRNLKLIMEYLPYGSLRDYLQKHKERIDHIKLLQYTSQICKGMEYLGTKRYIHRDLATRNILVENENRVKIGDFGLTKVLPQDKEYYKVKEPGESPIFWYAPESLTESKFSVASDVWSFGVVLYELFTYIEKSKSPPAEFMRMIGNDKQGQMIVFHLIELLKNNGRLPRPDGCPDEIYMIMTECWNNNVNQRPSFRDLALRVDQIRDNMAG
Chain of HIPK2 (human) (Q9H2X6 whole entry, looked up): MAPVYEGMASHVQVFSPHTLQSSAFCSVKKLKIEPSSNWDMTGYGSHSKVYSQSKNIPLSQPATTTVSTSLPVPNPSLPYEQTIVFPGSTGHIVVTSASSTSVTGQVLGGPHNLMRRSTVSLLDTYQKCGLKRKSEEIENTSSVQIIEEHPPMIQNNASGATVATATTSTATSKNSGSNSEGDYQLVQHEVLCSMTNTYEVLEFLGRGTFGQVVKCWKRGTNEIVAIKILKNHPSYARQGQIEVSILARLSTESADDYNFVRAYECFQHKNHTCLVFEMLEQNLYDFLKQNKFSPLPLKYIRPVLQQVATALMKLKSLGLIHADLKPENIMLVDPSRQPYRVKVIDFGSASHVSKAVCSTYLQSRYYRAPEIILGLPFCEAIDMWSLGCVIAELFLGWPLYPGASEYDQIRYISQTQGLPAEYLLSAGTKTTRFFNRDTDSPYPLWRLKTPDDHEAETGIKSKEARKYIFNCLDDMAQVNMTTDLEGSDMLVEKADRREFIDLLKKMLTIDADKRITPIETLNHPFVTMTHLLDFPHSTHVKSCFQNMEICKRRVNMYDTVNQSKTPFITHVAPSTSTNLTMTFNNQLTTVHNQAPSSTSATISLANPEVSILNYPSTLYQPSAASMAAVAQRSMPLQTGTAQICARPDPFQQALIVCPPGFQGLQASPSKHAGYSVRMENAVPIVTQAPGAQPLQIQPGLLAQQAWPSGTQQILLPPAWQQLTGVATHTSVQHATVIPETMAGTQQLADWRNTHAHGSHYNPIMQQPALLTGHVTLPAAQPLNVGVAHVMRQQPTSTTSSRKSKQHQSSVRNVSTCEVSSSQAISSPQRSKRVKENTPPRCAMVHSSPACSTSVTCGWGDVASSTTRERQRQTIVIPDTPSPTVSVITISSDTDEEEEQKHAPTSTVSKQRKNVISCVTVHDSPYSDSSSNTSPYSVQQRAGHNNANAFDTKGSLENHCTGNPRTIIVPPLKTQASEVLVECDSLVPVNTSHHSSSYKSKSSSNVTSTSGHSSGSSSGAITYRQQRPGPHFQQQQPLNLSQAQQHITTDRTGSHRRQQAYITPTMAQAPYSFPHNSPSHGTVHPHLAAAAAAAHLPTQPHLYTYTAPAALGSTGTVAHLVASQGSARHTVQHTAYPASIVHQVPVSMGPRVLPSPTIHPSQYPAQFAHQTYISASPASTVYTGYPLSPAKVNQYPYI

kinase still bound, per cent of control (CDK16 (human)): 39% | kinase still bound, per cent of control (TNIK (human)): 96% | kinase still bound, per cent of control [1]: 100% | kinase still bound, per cent of control [2]: 100% | kinase still bound, per cent of control (CAMK2G (human)): 100% | kinase still bound, per cent of control (SIK3 (human)): 84% | kinase still bound, per cent of control (MKNK1 (human)): 100% | kinase still bound, per cent of control (NUAK1 (human)): 100% | kinase still bound, per cent of control (STK33 (human)): 100% | kinase still bound, per cent of control (NTRK1 (human)): 100% | kinase still bound, per cent of control (PIK3CG (human)): 14% | kinase still bound, per cent of control (CDK19 (human)): 100% | kinase still bound, per cent of control (STK38L (human)): 100% | kinase still bound, per cent of control (ACVR1B (human)): 100% | kinase still bound, per cent of control (PAK7 (human)): 100% | kinase still bound, per cent of control (DAPK1 (human)): 84% | kinase still bound, per cent of control (CDK8 (human)): 100% | kinase still bound, per cent of control (AXL (human)): 100% | kinase still bound, per cent of control (SGK110 (human)): 100% | kinase still bound, per cent of control (HIPK4 (human)): 43% | kinase still bound, per cent of control (TSSK1B (human)): 94% | kinase still bound, per cent of control (AURKB (human)): 94% | kinase still bound, per cent of control (CDK15 (human)): 95% | kinase still bound, per cent of control (CSF1R (human)): 90% | kinase still bound, per cent of control (CSNK2A2 (human)): 100% | kinase still bound, per cent of control (TTK (human)): 86% | kinase still bound, per cent of control (SRPK3 (human)): 100% | kinase still bound, per cent of control (IRAK1 (human)): 100% | kinase still bound, per cent of control (DCLK2 (human)): 100% | kinase still bound, per cent of control (PKMYT1 (human)): 100% | kinase still bound, per cent of control [3]: 100% | kinase still bound, per cent of control (DDR1 (human)): 100% | kinase still bound, per cent of control (HIPK2 (human)): 100% | kinase still bound, per cent of control (MAP3K10 (human)): 76% | kinase still bound, per cent of control (RPS6KA6 KD1 (human)): 89% | kinase still bound, per cent of control (BMX (human)): 100% | kinase still bound, per cent of control (RPS6KA5 KD2 (human)): 100% | kinase still bound, per cent of control (STK3 (human)): 100% | kinase still bound, per cent of control (STK38 (human)): 100% | kinase still bound, per cent of control (BMPR2 (human)): 90% | kinase still bound, per cent of control (SYK (human)): 100%
SMILES: Cc1cnc(-c2cnc(NCCNc3ccc(C#N)cn3)nc2-c2ccc(Cl)cc2Cl)[nH]1

kinase still bound, per cent of control (CDK16 (human)): 0.2% | kinase still bound, per cent of control (TNIK (human)): 68% | kinase still bound, per cent of control [1]: 100% | kinase still bound, per cent of control [2]: 85% | kinase still bound, per cent of control (CAMK2G (human)): 58% | kinase still bound, per cent of control (SIK3 (human)): 86% | kinase still bound, per cent of control (MKNK1 (human)): 84% | kinase still bound, per cent of control (NUAK1 (human)): 90% | kinase still bound, per cent of control (STK33 (human)): 100% | kinase still bound, per cent of control (NTRK1 (human)): 77% | kinase still bound, per cent of control (PIK3CG (human)): 93% | kinase still bound, per cent of control (CDK19 (human)): 100% | kinase still bound, per cent of control (STK38L (human)): 100% | kinase still bound, per cent of control (ACVR1B (human)): 89% | kinase still bound, per cent of control (PAK7 (human)): 75% | kinase still bound, per cent of control (DAPK1 (human)): 79% | kinase still bound, per cent of control (CDK8 (human)): 100% | kinase still bound, per cent of control (AXL (human)): 100% | kinase still bound, per cent of control (SGK110 (human)): 100% | kinase still bound, per cent of control (HIPK4 (human)): 14% | kinase still bound, per cent of control (TSSK1B (human)): 100% | kinase still bound, per cent of control (AURKB (human)): 96% | kinase still bound, per cent of control (CDK15 (human)): 66% | kinase still bound, per cent of control (CSF1R (human)): 87% | kinase still bound, per cent of control (CSNK2A2 (human)): 99% | kinase still bound, per cent of control (TTK (human)): 83% | kinase still bound, per cent of control (SRPK3 (human)): 100% | kinase still bound, per cent of control (IRAK1 (human)): 100% | kinase still bound, per cent of control (DCLK2 (human)): 100% | kinase still bound, per cent of control (PKMYT1 (human)): 100% | kinase still bound, per cent of control [3]: 96% | kinase still bound, per cent of control (DDR1 (human)): 100% | kinase still bound, per cent of control (HIPK2 (human)): 15% | kinase still bound, per cent of control (MAP3K10 (human)): 100% | kinase still bound, per cent of control (RPS6KA6 KD1 (human)): 75% | kinase still bound, per cent of control (BMX (human)): 78% | kinase still bound, per cent of control (RPS6KA5 KD2 (human)): 100% | kinase still bound, per cent of control (STK3 (human)): 9.9% | kinase still bound, per cent of control (STK38 (human)): 100% | kinase still bound, per cent of control (BMPR2 (human)): 100% | kinase still bound, per cent of control (SYK (human)): 92%
SMILES: Cn1cc(C2=C(c3ccc(Cl)cc3Cl)C(=O)NC2=O)c2ccccc21

kinase still bound, per cent of control (CDK16 (human)): 15% | kinase still bound, per cent of control (TNIK (human)): 100% | kinase still bound, per cent of control [1]: 100% | kinase still bound, per cent of control [2]: 96% | kinase still bound, per cent of control (CAMK2G (human)): 100% | kinase still bound, per cent of control (SIK3 (human)): 77% | kinase still bound, per cent of control (MKNK1 (human)): 100% | kinase still bound, per cent of control (NUAK1 (human)): 100% | kinase still bound, per cent of control (STK33 (human)): 75% | kinase still bound, per cent of control (PIK3CG (human)): 100% | kinase still bound, per cent of control (CDK19 (human)): 100% | kinase still bound, per cent of control (STK38L (human)): 100% | kinase still bound, per cent of control (ACVR1B (human)): 86% | kinase still bound, per cent of control (PAK7 (human)): 96% | kinase still bound, per cent of control (DAPK1 (human)): 99% | kinase still bound, per cent of control (CDK8 (human)): 100% | kinase still bound, per cent of control (AXL (human)): 100% | kinase still bound, per cent of control (SGK110 (human)): 83% | kinase still bound, per cent of control (HIPK4 (human)): 49% | kinase still bound, per cent of control (TSSK1B (human)): 91% | kinase still bound, per cent of control (AURKB (human)): 97% | kinase still bound, per cent of control (CDK15 (human)): 100% | kinase still bound, per cent of control (CSF1R (human)): 97% | kinase still bound, per cent of control (CSNK2A2 (human)): 100% | kinase still bound, per cent of control (TTK (human)): 100% | kinase still bound, per cent of control (SRPK3 (human)): 100% | kinase still bound, per cent of control (IRAK1 (human)): 100% | kinase still bound, per cent of control (DCLK2 (human)): 100% | kinase still bound, per cent of control (PKMYT1 (human)): 53% | kinase still bound, per cent of control [3]: 100% | kinase still bound, per cent of control (DDR1 (human)): 100% | kinase still bound, per cent of control (HIPK2 (human)): 90% | kinase still bound, per cent of control (MAP3K10 (human)): 87% | kinase still bound, per cent of control (RPS6KA6 KD1 (human)): 100% | kinase still bound, per cent of control (BMX (human)): 100% | kinase still bound, per cent of control (RPS6KA5 KD2 (human)): 100% | kinase still bound, per cent of control (STK3 (human)): 3.4% | kinase still bound, per cent of control (STK38 (human)): 100% | kinase still bound, per cent of control (BMPR2 (human)): 100% | kinase still bound, per cent of control (SYK (human)): 100%
SMILES: COc1ccc(CNC(=O)Nc2ncc([N+](=O)[O-])s2)cc1
